Measurements from patent publication US20080280890A1, “HYDROXYLAMINE COMPOUNDS AND METHODS OF THEIR USE” (priority 2007, published 2008).
Where a name gives a salt, the structure may show the parent alone.

Legend:
[1] = system: Angiogenesis in CAM model; experiment: Neovascularization on the CAM (chick chorioallantoic membrane model of angiogenesis); format: in vivo, chicken; conditions: 30 ug; unit assumed
Description: In vivo neovascularization was examined by the method previously described by Auerbach et al. (J. Dev. Biol. 41:391-394 (1974)). Ten-day old chicken embryos were purchased from Spafas, Inc. (Preston, Conn.) and were incubated at 37° C. with 55% relative humidity. In the dark, with the aid of a candling lamp, a small hole was punctured in the shell concealing the air sac with a hypodermic needle. A second hole was punctured in the shell on the broadside of the egg directly over an […] portion of the embryonic membrane, as observed during candling. An artificial air sac was created beneath the second hole by applying gentle vacuum to the first hole using a small rubber squeeze bulb. The vacuum caused the chorioallantoic membrane (CAM) to separate from the shell.
A window, approximately 1.0 cm^2, was cut in the shell over the dropped CAM with the use of a small crafts grinding wheel (Dremel, Division of Emerson Electric Company Racine, Wis.). The window allowed direct access to the underlying CAM.
A pro-angiogenic agent was added to induce new blood vessel branches on the CAM of 10-day old embryos. Filter disks of #1 filter paper (Whatman International, United Kingdom) were punched using a small puncher and were soaked in 3 mg/mL cortisone acetate (Sigma, St. Louis, Mo.) in a solution (95% ethanol and water). The disks were subsequently air dried under sterile conditions. The disks were then suspended in PBS (Phosphate Buffered Saline) and placed on growing CAMs. Filters treated with TP-H (TEMPOL-H) or TEMPOL and/or H2O2 or TP-H and/or bFGF or VEGF were placed on the first day of the 3-day incubation.
For inducing angiogenesis, sterile filter disks were saturated with bFGF (1 μg/ml) (Life Technologies, Gaithersburg, Md.) or other pro-angiogenesis factors and control disks were saturated with PBS without Calcium and Magnesium. […]
Using sterile forceps one filter/CAM was placed from the window. The window was sealed with Highland brand transparent tape.
After 24-48 hr, 10-25 ul of test agent was injected intravenously or added topically into the CAM membrane. Eight-Ten eggs/treatment group were used.
CAM tissue directly beneath filter disk was harvested from embryos treated 48 hours prior with compound or control. Tissues were washed three times with PBS. Sections were placed in a 35-mm petri dish (Nalge Nunc, Rochester, N.Y.) and examined under a SV6 stereomicroscope (Karl Zeiss, Thornwood, N.Y.) at 50× magnification.
CAM sections from Petri dish were examined using SV6 stereomicroscope (Karl Zeiss) at 50× magnification. Digital images of CAM sections from Petri dish were collected using a 3-CCD color video camera system (Toshiba America, New York, N.Y.). These images were analyzed using Image-Pro Plus software (Media Cybernetics, Silver Spring, Md.).
The number of branch points in blood vessels within the circular region superimposed to the area of a filter disk was counted for each section. After incubation at 37° C. with 55% relative humidity for 3 days, the CAM tissue directly beneath each filter disk was resected from control and treated CAM samples. Tissues were washed three times with PBS. Sections were placed in a 35-mm Petri dish (Nalge Nunc; Rochester, N.Y.) and were examined under a SV6 stereomicroscope (Karl Zeiss; Thornwood, N.Y.) at 50× magnification. Digital images of CAM sections adjacent to filters were collected using a 3-CCD color video camera system (Toshiba America; New York, N.Y.) and analyzed with the Image-Pro Plus software (Media Cybernetics; Silver Spring, Md.).
The number of vessel branch points contained in a circular region equal to the area of a filter disk was counted for each section. Percent inhibition data are expressed as the quotient of the experimental value minus the negative control value divided by the difference between the positive control value and the negative control value. […]

[2] = system: Human neuroblastoma SKN-SH cells, resistant to doxorubicin; experiment: Chemoresistance: cancer cell viability (MTT) in presence or absence of doxorubicin; format: cell-based; conditions: compound 50 ug/mL, MTT
Text: A method for evaluating a compound's propensity to overcome cancer cell chemoresistance is described in “Caspase Inhibition Switches Doxorubicin-Induced Apoptosis To Senescence”, Abdelhadi Rebbaa, Xin Zheng, Pauline M Chou and Bernard L Mirkin, Oncogene (2003) 22, 2805-2811. Resistant human cancer cells to doxorubicin were selected by stepwise exposure to drug concentrations ranging from 10^−9 M-10^−6 M over 3 months. They were then subjected to treatment with the doxorubicin alone or in combination with hydroxylamine compounds 1-12, 16, 20, and 21 (Table 4). The cells were incubated with the drugs for 72 hours, and cell viability was measured by the MTT assay. Additionally, molecular pathways that might be associated with increased chemo-responsiveness with these compounds were investigated. p Cancer Cell Viability Data for certain hydroxylamines in the presence or absence of Doxorubicin is listed in Table 4.
A method for evaluating a compound's propensity to overcome cancer cell chemoresistance is described in “Caspase Inhibition Switches Doxorubicin-Induced Apoptosis To Senescence”, Abdelhadi Rebbaa, Xin Zheng, Pauline M Chou and Bernard L Mirkin, Oncogene (2003) 22, 2805-2811. Human neuroblastoma SKN-SH cells (ATCC Cat. No. HTB-11) were cultured in Dulbecco's Modified Eagles Medium (DMEM; Gibco, Grand Island, N.Y.) supplemented with 10% fetal bovine serum (FBS; Sigma-Aldrich, St. Louis, Mo.) at 37° C. in a 95% Air/5% CO2 atmosphere. Resistant human cancer cells to doxorubicin were selected by stepwise exposure to drug concentrations ranging from 10^−9M-10^−6M over 3 months. They were then subjected to treatment with the doxorubicin alone or in combination with hydroxylamine compounds. The cells were incubated with the drugs for 72 hours, and cell viability was measured by the MTT assay. This consists of adding 10 μl/well of MTT (5 mg/ml solution) and incubation for 4 h at 37° C. The precipitate formed is then solubilized by addition of 100 μl of HCL 0.5 N/Isopropanol and incubation for 15 hours at 37° C. The optical density is measured at 570 nm and cell survival is estimated by comparison to untreated cells. Each point represents 4 wells data represent average ± SE. Additionally, molecular pathways that might be associated with increased chemo-responsiveness with these compounds were investigated.
Cytotoxic activity of doxorubicin and hydroxylamine analogs were quantitatively determined by a colorimetric assay utilizing 3-(4,5-dimethyl-2-thiazolyl) 2,5-diphenyl tetrazolium bromide (MTT; Sigma-Aldrich, St. Louis, Mo.). Briefly, cells were seeded at 10^4 cells/well in 96-well plates and maintained in culture for 24 hours at 37° C. in DMEM supplemented with 10% FBS. Drugs were added to designated wells and cells were incubated for […], following which MTT (10 μL of 5 mg/ml solution) was added to each 100 μl well and incubated for 4 hours at 37° C. The cells were solubilized by incubation with 100 μl of HCl 0.5N in isopropanol for 15 hours at 37° C. The optical density of this solution was measured at 570 nm and the percentage of viable cells estimated by comparison with untreated control cells.

| SMILES | melting point | Percent inhibition of angiogenesis in CAM model at 30 ug [1] | Mean OD (×10^−3), cancer cell viability ([2]; Dox. 10^−6 M present (+)) | Mean OD (×10^−3), cancer cell viability ([2]; Dox. absent (−)) |
| --- | --- | --- | --- | --- |
| CC1(C)CC(Oc2nsnc2C(=O)O)CC(C)(C)N1O.Cl | 209.1 °C (dec.) | – | – | – |
| CC1(C)CC(Oc2nsnc2N2CCN(C(=O)c3ccco3)CC2)CC(C)(C)N1O.Cl | 198.1 °C (dec.) | – | – | – |
| CC1(C)CC(Oc2nc3ccccc3s2)CC(C)(C)N1O.Cl | 160 °C (dec.) | – | – | – |
| CC1(C)CC(Oc2nc3ccc(F)cc3s2)CC(C)(C)N1O.Cl | 178 °C (dec.) | – | – | – |
| CC1(C)C=C(COc2ccccc2N2CCOCC2)C(C)(C)N1O.Cl | 155.7 °C (dec.) | – | – | – |
| Cc1c(C)c2c(c(C)c1O)CCC(C)(C(=O)NC1CC(C)(C)N(O)C(C)(C)C1)O2.Cl (centres unmarked) | 174.9 °C (dec.) | – | – | – |
| COc1cc2c(cc1OC)CN(c1nsnc1OC1CC(C)(C)N(O)C(C)(C)C1)CC2.Cl | 166.9 °C (dec.) | – | – | – |
| CC1(C)CC(Nc2nc3ccccc3s2)CC(C)(C)N1O.Cl | 183 °C (dec.) | – | – | – |
| COc1ccc2nc(NC3CC(C)(C)N(O)C(C)(C)C3)sc2c1.Cl | 220 °C (dec.) | – | – | – |
| CC1(C)c2ccc(Br)cc2C(C)(C)N1O.Cl | 214.1 °C | – | – | – |
| CC(C)(C)OC(=O)c1nsnc1OC1CC(C)(C)N(O)C(C)(C)C1.Cl | 197 °C (dec.) | – | – | – |
| CC1(C)C=C(CO)C(C)(C)N1O (as salt: chloride) [Compound 8] | 141.9 °C (dec.) | – | – | – |
| CC1(C)CC(Oc2nsnc2C#N)CC(C)(C)N1O (as salt: hydrochloride) [Compound 45] | 179.2 °C (dec.) | – | – | – |
| Cc1nsnc1OCC1=CC(C)(C)N(O)C1(C)C (as salt: hydrochloride) [Compound 47, 3-((1-hydroxy-2,5-dihydro-2,2,5,5-tetramethyl-1H-pyrrol-3-yl)methoxy)-4-methyl-1,2,5-thiadiazole] | 173.2 °C | – | – | – |
| CC1(C)CC(NC(=O)CCCCC2CCSS2)CC(C)(C)N1O (centres unmarked) (as salt: hydrochloride) [Compound 49, 5-(1,2-dithialan-3-yl)-N-(1-hydroxy-2,2,6,6-tetramethylpiperidin-4-yl)pentanamide] | 164.7 °C (dec.) | – | – | – |
| CC(C)c1nsnc1OCC1=CC(C)(C)N(O)C1(C)C (as salt: hydrochloride) [Compound 51] | 155.7 °C | – | – | – |
| CC1(C)CC(O)C(C)(C)N1O (centres unmarked) (as salt: salt) [Compound 7, 2,2,5,5-Tetramethyl-Pyrrolidine-1,3-diol] | 155.5 °C (dec.) | – | – | – |
| CC1(C)CC(NS(C)(=O)=O)CC(C)(C)N1O (as salt: salt) [Compound 10, 1-hydroxy-4-methanesulfonamido-2,2,6,6-tetramethylpiperidine] | 178.3 °C (dec.) | – | – | – |
| CC1(C)CC(O)C(Br)C(C)(C)N1O (centres unmarked) [Compound 9, 3-Bromo-2,2,6,6-tetramethyl-piperidine-1,4-diol] | 138.5 °C (dec.) | 82.2% | 234.75 ×10^−3 | 509.00 ×10^−3 |
| CC1(C)CC(C#N)CC(C)(C)N1O.Cl [Compound 12, 4-cyano-1-hydroxyl-2,2,6,6-tetramethylpiperidine] | 186 °C (dec.) | – | 287.25 ×10^−3 | 539.25 ×10^−3 |
| CC1(C)CC(Cl)CC(C)(C)N1O.Cl [Compound 21, 4-chloro-1-hydroxy-2,2,6,6-tetramethylpiperidine] | 201.8 °C (dec.) | 60.9% | 99.25 ×10^−3 | 492.75 ×10^−3 |
| CC1(C)COC(=O)C(C)(C)N1O.Cl [Compound 39, N-Hydroxyl-3,3,5,5-tetramethylmorpholin-2-one] | 145 °C (dec.) | 96.9% | 311.00 ×10^−3 | 1201.00 ×10^−3 |
| CCCCC1(O)CC(C)(C)N(O)C(C)(C)C1.Cl [Compound 41, 1,4-dihydroxy-4-n-butyl-2,2,6,6-tetramethylpiperidine] | 187 °C (dec.) | 84.4% | 261.25 ×10^−3 | 824.75 ×10^−3 |
| CC1(C)CC(O)(c2ccccc2)CC(C)(C)N1O.Cl [Compound 42, 1,4-Dihydroxy-4-phenyl-2,2,6,6-tetrmethylpiperidine] | 201.7 °C (dec.) | 61.9% | 311.00 ×10^−3 | 1068.67 ×10^−3 |
| CC1(C)CC(Oc2nsnc2N2CCSCC2)CC(C)(C)N1O.Cl [Compound 55, 4-(4-(1-hydroxy-2,2,6,6-tetramethylpiperidin-4-yloxy)-1,2,5-thiadiazol-3-yl)thiomorpholine] | 218 °C (dec.) | – | 285.75 ×10^−3 | 1037.25 ×10^−3 |
| CC1(C)CC(=CC(=O)N2CCN(c3ccccc3)CC2)CC(C)(C)N1O [Compound 56] | – | 66.1% | 308.75 ×10^−3 | 1153.00 ×10^−3 |
| CC1(C)C(CO)=C(c2ccc(F)cc2)C(C)(C)N1O.Cl [Compound 59, (4-(4-fluorophenyl)-1-hydroxy-2,5-dihydro-2,2,5,5-tetramethyl-1H-pyrrol-3-yl)methanol] | – | 53% | 352.00 ×10^−3 | 1105.00 ×10^−3 |
